# Measurements taken from patent publication US9844226B2 (AJINOMOTO CO., INC., priority 2009, dated 2017).
# Entries after “also recorded” stand apart in the source; their conditions may differ.
# Assays:
# [1] = Stability (statement only); format: physicochemical; conditions: compared with γ-Glu-Cys
# [2] = tested on: panelists; test: Quantitative sensory evaluation test of salty taste enhancement; format: in vivo, human
# Procedure: After the test compound was dissolved, samples more acidic than a control containing no added test compound were adjusted, before further use, with NaOH to have a pH in a range of ±0.2 from the pH of the control to which no test compound was added.
# The sensory evaluation scores were as follows, the control to which no test compound was added, i.e. a 0.5 g/dL sodium chloride solution: 0 points; a 0.75 g/dL sodium chloride solution: 5 points. The sensory evaluation was conducted on a scale ranging from −5 to 0 to 5, with n=5. The “initial taste” refers to the taste perceived by each panelist from the start of eating the sample to 2 seconds thereafter, while the term “middle/after taste” refers to that perceived by each panelist from 2 seconds on and after eating the same, i.e. perceived during the period including both the middle taste and the after taste. For the scoring, a linear scale method was used. In this method, the score was marked as a position on a straight line showing positions for scores ranging from −5˜0˜5. The panelists were persons who were engaged in the development of seasonings for foods for one year or longer in total, and who were capable of determining that the difference in the potency between γ-Glu-Cys-Gly and γ-Glu-Val-Gly each added to a umami taste and salty taste solution was around 10 times, while confirming the ability of these persons at regular intervals.
# [3] = tested on: panelists; test: Quantitative sensory evaluation test of kokumi-imparting activity; format: in vivo, human
# Procedure: This quantitative sensory evaluation test was carried out as follows: The strength of the kokumi-imparting activity was measured for the cases where the test compound was mixed at concentrations of 0.001 to 0.5 g/dL with distilled water containing sodium glutamate (0.05 g/dL), inosine monophosphate (0.05 g/dL), and sodium chloride (0.5 g/dL). After the test compound was dissolved, samples more acidic than a control with no added test compound were adjusted, before further use, with NaOH to have a pH in a range of ±0.2 from the pH of the control with no added test compound. The sensory evaluation scores were as follows: control: 0 points; strong: 3 points; very strong: 5 points. The sensory evaluation was carried out using n (the number of panelists)=4. Moreover, to clarify the scale, the initial taste and the middle/after taste of γ-[…] at 0.001 g/dL were both set as 3.0 points. The term “middle/after taste” refers to the taste perceived during the period which includes the middle taste and the after taste. For the scoring, a linear scale method was employed. In this method, the score was marked as a position on a straight line showing positions for scores ranging from -5 0 5.
# [4] = 0.004 g/dL in 0.5 g/dL NaCl, 0.5 g/dL NaCl = 0, 0.75 g/dL NaCl = 5, n=5
# [5] = 0.005 g/dL in water with MSG 0.05, IMP 0.05, NaCl 0.5 g/dL, scale -5~0~5, n=4
compound,measurement,setting,value
CC[C@H](NC(=O)CC[C@H](N)C(=O)O)C(=O)O,Stability (in words),[1],excellent in stability
same,Sensory Evaluation Profile (salty taste),[2]; 0.004 g/dL in 0.5 g/dL NaCl,The salty taste was enhanced
same,"Strength of Salty Taste Impartment, Initial Taste",[2]; [4],1.6 points
same,"Strength of Salty Taste Impartment, Middle/After Taste",[2]; [4],1.5 points
same,Salty taste enhancement ability (in words),[2]; comparison of γ-Glu-Val-Gly and γ-Glu-Abu,extremely well balanced salty taste enhancement
same,"Strength of Kokumi Impartment, Initial Taste",[3]; [5],3.8 points
same,"Strength of Kokumi Impartment, Middle/After Taste",[3]; [5],3.2 points
same,Kokumi-imparting potency (in words),[3]; in vivo,extremely high potency; also recorded: excellent kokumi-imparting activity
